Each structure is given as a SMILES string. pEC50, pIC50: −log10 of the molar value.

One may read the pIC50 as the negative decadic logarithm of the IC50, by convention in mol/L. As a reminder, the pEC50 is the EC50 on a negative log10 scale, so that one unit is a factor of ten.

Experiment [1] is described as follows: Inhibition of p53/HDM2 interaction.
Experiment [2] is described as follows: Inhibition of human biotin-labelled p53/GST-tagged Hdm2 interaction preincubated for 20 mins before GST-tagged Hdm2 protein addition measured after 1 hr by HTR-FRET based competition assay.
A further experiment deals with NCI-H460. Nature of the experiment: Cytotoxicity against human H460 cells at 40 uM relative to control. It is filed as functional.

`CCCCCCCC[C@H]1NC(=O)[C@@H](CC(C)C)NC(=O)[C@H]([C@@H](C)O)NC(=O)[C@@H](CC(C)C)NC(=O)[C@@H](CC(N)=O)NC(=O)[C@H](CC(N)=O)NC(=O)[C@H](C)NC(=O)[C@H]([C@@H](C)O)NC(=O)[C@H](CCCN2C=C3C(=O)[C@@](C)(OC(=O)CCC)C(=O)C(Cl)=C3[C@@H](O)[C@]23CCCO3)NC1=O` (relative stereo) gave a pIC50 in experiment [1] of 5.34.

Turning to `C=C(C(=O)O)C(CCCCCC)C(=O)O` (centres undefined) [HEXYLITACONIC ACID], in experiment [1], the pIC50 is 3.64.

In experiment [2], `CCC[C@@H](C)[C@H](O)[C@H](C)[C@@H](O)[C@@H](C)[C@H](Cc1nc(C2=N[C@@](C)(C3=N[C@@](C)(C(=O)N[C@H]([C@@H](O)[C@@H](C)C(=O)O)[C@@H](C)CC)CS3)CS2)cs1)OC` [HOIAMIDE D] showed a pEC50 of 5.35. Besides, the Activity in the experiment on NCI-H460 was determined as 16%.
